Assay results reported in publication PMC11728000, “Antitumor Activity and Multi-Target Mechanism of Phenolic Schiff Bases Bearing Methanesulfonamide Fragments: Cell Cycle Analysis and a Molecular Modeling Study” (International Journal of Molecular Sciences, 2024).
pIC50: −log10 of the molar value.

Assays:
[1] = test system: Leukemia subpanel tumor cell lines; test: NCI anticancer screening, subpanel summary; format: cell-based; conditions: leukemia; 10 µM, joint for compounds named together
MALME-3M = test: NCI anticancer screening (SRB), Melanoma subpanel; format: cell-based, human; conditions: 10.0 µM in one dose
HOP-92 = test: NCI anticancer screening (SRB), Non-Small Cell Lung Cancer subpanel; format: cell-based, human; conditions: 10.0 µM in one dose
UO-31 = test: NCI anticancer screening (SRB), Renal Cancer subpanel; format: cell-based, human; conditions: 10.0 µM in one dose
[2] = test system: 59 human cancer cell lines; test: NCI anticancer screening, full panel summary; conditions: 10 µM single dose; for PCE (positive cytotoxic effect): ratio of cell lines with growth inhibition > 10% to total cell lines; for MG% (mean growth percent): mean over 59 cell lines
[3] = test system: Breast Cancer subpanel tumor cell lines; test: NCI anticancer screening, subpanel summary; format: cell-based; conditions: breast; 10 µM, joint for compounds named together
[4] = test system: NSC Lung Cancer subpanel tumor cell lines; test: NCI anticancer screening, subpanel summary; format: cell-based; conditions: non-small cell lung; 10 µM, joint for compounds named together
CAKI-1 = test: NCI anticancer screening (SRB), Renal Cancer subpanel; format: cell-based, human; conditions: 10.0 µM in one dose
UACC-257 = test: NCI anticancer screening (SRB), Melanoma subpanel; format: cell-based, human; conditions: 10.0 µM in one dose
A498 = test: NCI anticancer screening (SRB), Renal Cancer subpanel; format: cell-based, human; conditions: 10.0 µM in one dose
MCF-7 = test: NCI anticancer screening (SRB), Breast Cancer subpanel; format: cell-based, human; conditions: 10.0 µM in one dose
SR = test: NCI anticancer screening (SRB), Leukemia subpanel; format: cell-based, human; conditions: 10.0 µM in one dose
SK-MEL-5 = test: NCI anticancer screening (SRB), Melanoma subpanel; format: cell-based, human; conditions: 10.0 µM in one dose
SF-539 = test: NCI anticancer screening (SRB), CNS Cancer subpanel; format: cell-based, human; conditions: 10.0 µM in one dose
HT29 = test: NCI anticancer screening (SRB), Colon Cancer subpanel; format: cell-based, human; conditions: 10.0 µM in one dose
NCI-H226 = test: NCI anticancer screening (SRB), Non-Small Cell Lung Cancer subpanel; format: cell-based, human; conditions: 10.0 µM in one dose
HCT-116 = test: NCI anticancer screening (SRB), Colon Cancer subpanel; format: cell-based, human; conditions: 10.0 µM in one dose
DU-145 = test: NCI anticancer screening (SRB), Prostate Cancer subpanel; format: cell-based, human; conditions: 10.0 µM in one dose
PC-3 = test: as above; format: cell-based, human; conditions: 10.0 µM in one dose
T-47D = test: NCI anticancer screening (SRB), Breast Cancer subpanel; format: cell-based, human; conditions: 10.0 µM in one dose
HCT-15 = test: NCI anticancer screening (SRB), Colon Cancer subpanel; format: cell-based, human; conditions: 10.0 µM in one dose
EKVX = test: NCI anticancer screening (SRB), Non-Small Cell Lung Cancer subpanel; format: cell-based, human; conditions: 10.0 µM in one dose
MDA-MB-468 = test: NCI anticancer screening (SRB), Breast Cancer subpanel; format: cell-based, human; conditions: 10.0 µM in one dose
MOLT-4 = test: NCI anticancer screening (SRB), Leukemia subpanel; format: cell-based, human; conditions: 10.0 µM in one dose
NCI-H23 = test: NCI anticancer screening (SRB), Non-Small Cell Lung Cancer subpanel; format: cell-based, human; conditions: 10.0 µM in one dose
[5] = test system: Ovarian Cancer subpanel tumor cell lines; test: NCI anticancer screening, subpanel summary; format: cell-based; conditions: ovarian; 10 µM, joint for compounds named together
RPMI-8226 = test: NCI anticancer screening (SRB), Leukemia subpanel; format: cell-based, human; conditions: 10.0 µM in one dose
LOX IMVI = test: NCI anticancer screening (SRB), Melanoma subpanel; format: cell-based, human; conditions: 10.0 µM in one dose
U251 = test: NCI anticancer screening (SRB), CNS Cancer subpanel; format: cell-based, human; conditions: 10.0 µM in one dose
MDA-MB-231/ATCC = test: NCI anticancer screening (SRB), Breast Cancer subpanel; format: cell-based, human; conditions: 10.0 µM in one dose
SF-295 = test: NCI anticancer screening (SRB), CNS Cancer subpanel; format: cell-based, human; conditions: 10.0 µM in one dose
in vitro = conditions: human
Experimental: the measured protein at the end of the drug treatment as compared to that at the beginning) indicating a net loss of cells following treatment was calculated from [(Ti − Tz)/Tz] […] = − 50.
Values were calculated for each of these three parameters if the activity level was reached; however, if the effect was not reached or exceeded, that parameter's value was expressed as more or less than the maximum or minimum concentration tested. The log GI50, log TGI, and log LC50 were then determined and defined as the mean of the logs of the individual GI50, TGI, and LC50 values. The lowest values are obtained with the most sensitive cell lines. The compound with log GI50 values −4 and <−4 was declared active.
2. In vitro cytotoxic activity towards normal fibroblast (WI-38) cells Cell Lines were obtained from the American Type Culture Collection; cells were cultured using DMEM (Invitrogen/Life Technologies) supplemented with 10% FBS (Hyclone), ten ug/ml of insulin (Sigma), and 1% penicillin–streptomycin. Cultures were removed from the incubator into a laminar flow hood, reconstituted with 3 mL of balanced salt solution without phenol red and serum, and then added to an amount equal to 10% of the culture medium volume. Cultures returned to the incubator for 2–4 h. After the incubation period, the resulting formazan crystals dissolved […]
medium volume. The absorbance was measured Spectrophotometrically at a wavelength of 570 […]
3. In vitro cyclooxygenase (COX-2) inhibition assay
The ability of the test compounds to inhibit COX-2 was determined using an enzyme immunoassay […]
manufacturer’s instructions.

MCF-7 cells [6] = test: Cell cycle analysis (PI flow cytometry); format: cell-based, human; conditions: 10 μM, 24 h
Experimental: Apoptosis is the primary mechanism by which potent chemotherapeutic agents destroy cancer cells. […] Flow cytometry measured cell growth in the G0-G1, S, and G2/M cell cycle phases.
Using the MCF-7 cell line, the cell cycle analysis was carried out like our previous investigation. A FACSCalibur flow cytometer was used to analyze the cells after they had been stained with DNA fluorochrome PI (Supplementary Materials). […]
photomultiplier voltage and for compensation setting adjustment to eliminate spectral overlap between the FL1 and the FL2 signals.
6. Cell cycle analysis
Breast carcinoma (MCF-7) cell was seeded at 2 × 10^5 cells/well density and incubated for 24 h in six-well plates. Foetal bovine serum (10%) was added, and the cells were incubated at 37 °C in an atmosphere of 5% CO2. The medium was replaced with 1% (v/v) DMSO containing 10.0 μM of […]
with 70% ethanol, rinsed with phosphate-buffered saline, and then stained with the DNA fluorochrome propidium iodide (PI) for 15 min at 37 °C. Then, samples were analyzed by flow cytometry using a FACSCalibur (Becton Dickinson). The cell cycle distributions were calculated using CellQuest software (Becton Dickinson). […]

MCF-7 cells [7] = test: Annexin V-FITC/PI apoptosis assay; format: cell-based, human; conditions: 24 h

In the case of `CS(=O)(=O)Nc1ccc(C(=O)N/N=C/c2cccc(O)c2)cc1` [Compound 9], the “GI range in subpanel” value [1] was 10.0%, the GI% (MALME-3M) was 12% and the GI% (HOP-92) was 23%. The GI% (UO-31) was 17%, the “PCE (positive cytotoxic effect)” value [2] was 3/59 and the “GI range in subpanel” value [3] was 11.0%. The “GI range in subpanel” value [4] was 23.0%.
For `CS(=O)(=O)Nc1ccc(C(=O)N/N=C/c2ccc(O)cc2)cc1` [Compound 10], the “GI range in subpanel” value [1] was 10.0%, the GI% (CAKI-1) was 10% and the GI% (UO-31) was 14%. The “PCE (positive cytotoxic effect)” value [2] was 4/59, the “GI range in subpanel” value [3] was 11.0% and the GI% (UACC-257) was 10%. For the same compound, the “GI range in subpanel” value [4] was 23.0% and the GI% (A498) was 15%.
With `COc1cc(/C=N/NC(=O)c2ccc(NS(C)(=O)=O)cc2)ccc1O` [Compound 11] the “GI range in subpanel” value [1] was 10.0%, the GI% (CAKI-1) was 16% and the GI% (MCF-7) was 11%. For the same compound, the GI% (SR) was 10%, the GI% (UO-31) was 10% and the “PCE (positive cytotoxic effect)” value [2] was 4/59. For the same compound, the “GI range in subpanel” value [3] was 11.0% and the “GI range in subpanel” value [4] was 23.0%.
In the case of `Cc1ccc(NC(=O)c2ccc(CN3CCN(C)CC3)cc2)cc1Nc1nccc(-c2cccnc2)n1` [Imatinib, imatinib], the GI% (SK-MEL-5) was 22%, the GI% (SF-539) was 25% and the GI% (HT29) was 47%. It also gave a GI% (NCI-H226) of 11%, a GI% (HCT-116) of 19% and a GI% (DU-145) of 14%. The GI% (PC-3) was 11%, the GI% (T-47D) was 19% and the GI% (HCT-15) was 12%. For the same compound, the GI% (EKVX) was 16%, the GI% (MDA-MB-468) was 29% and the GI% (SR) was 15%. The GI% (MOLT-4) was 18%, the GI% (NCI-H23) was 17% and the “MG% (mean growth percent)” value [2] was 92.62%. For the same compound, the “MG% (mean growth percent)” value ([2]; listed as imatinib) was 92.6%, the “GI range in subpanel” value [5] was no less than 10.0% and the GI% (RPMI-8226) was 13%. It also gave a GI% (LOX IMVI) of 12%, a GI% (U251) of 11% and a GI% (MDA-MB-231/ATCC) of 11%. It also gave a GI% (SF-295) of 15% and a GI% (A498) of 14%.
Compound `CS(=O)(=O)CCNCc1ccc(-c2ccc3ncnc(Nc4ccc(OCc5cccc(F)c5)c(Cl)c4)c3c2)o1` [Lapatinib, lapatinib] has a pIC50 (in vitro) of 4.49.
With `CN[C@@H]1C[C@H]2O[C@@](C)([C@@H]1OC)n1c3ccccc3c3c4c(c5c6ccccc6n2c5c31)C(=O)NC4` [Staurosporine, staurosporine] the “%G0–G1” value (MCF-7 cells [6]) was 65.74%, the “%G2-M” value (MCF-7 cells [6]) was 3.07% and the “%S” value (MCF-7 cells [6]) was 31.19%. The “Comment (cell cycle arrest phase)” value (MCF-7 cells [6]) was “Growth arrest@G1/S”, the Necrosis (MCF-7 cells [7]) was 4.04% and the “Total Apoptosis” value (MCF-7 cells [7]; annexin V-FITC/PI) was 34.39%. For the same compound, the “Early Apoptosis” value (MCF-7 cells [7]; lower-right quadrant) was 8.36% and the “Late Apoptosis” value (MCF-7 cells [7]; upper-right quadrant) was 21.99%.
